For 1 compound, ED50 results are on record in ChEMBL document CHEMBL1144273, “Synthesis and SAR studies of 3-phenoxypropyl piperidine analogues as ORL1 (NOP) receptor agonists” (Bioorg Med Chem Lett, 2005).

A word on the ED50: it is the dose that gives a 50% effect, or the effect in half of the subjects. A higher ED50 goes with a need for a large dose.

This assay has as its system Mus musculus. The assay can be described thus: In vivo effective dose against mouse formalin paw after intravenous administration of the compound. The assay is classed as functional.

In turn, `COc1ccc(C)c(OC(CCN2CCC(n3c(=O)[nH]c4ccccc43)CC2)C(C)C)c1` (stereo unspecified) [ORGANON] came in with an ED50 of 1.07 µmol/kg.
